Results as given in patent publication US9505768B2, “Compositions and methods for modulating TLR4” (The Regents of the University of California, priority 2012, dated 2016).
Entries after “also recorded” stand apart in the source; their conditions may differ.

What was measured:
Format in all cases: cell-based
mouse TLR4 = target: T1, mouse TLR4 (Mus musculus, UniProt Q9JHF9+Q9QUK6); experiment: Murine TLR4 HEK Blue NFκB/SEAP reporter assay; settings: for mouse TLR4, area under curve (AUC) values normalized to Cmpd 1: mTLR4 HEK transfectoma, 312 nM to 10 μM, Cmpd 1 set at 100
T1 construct: host or cells: HEK293 (HEK Blue) cells with NFκB/SEAP reporter
T1 sequence (Q9QUK6 26-835): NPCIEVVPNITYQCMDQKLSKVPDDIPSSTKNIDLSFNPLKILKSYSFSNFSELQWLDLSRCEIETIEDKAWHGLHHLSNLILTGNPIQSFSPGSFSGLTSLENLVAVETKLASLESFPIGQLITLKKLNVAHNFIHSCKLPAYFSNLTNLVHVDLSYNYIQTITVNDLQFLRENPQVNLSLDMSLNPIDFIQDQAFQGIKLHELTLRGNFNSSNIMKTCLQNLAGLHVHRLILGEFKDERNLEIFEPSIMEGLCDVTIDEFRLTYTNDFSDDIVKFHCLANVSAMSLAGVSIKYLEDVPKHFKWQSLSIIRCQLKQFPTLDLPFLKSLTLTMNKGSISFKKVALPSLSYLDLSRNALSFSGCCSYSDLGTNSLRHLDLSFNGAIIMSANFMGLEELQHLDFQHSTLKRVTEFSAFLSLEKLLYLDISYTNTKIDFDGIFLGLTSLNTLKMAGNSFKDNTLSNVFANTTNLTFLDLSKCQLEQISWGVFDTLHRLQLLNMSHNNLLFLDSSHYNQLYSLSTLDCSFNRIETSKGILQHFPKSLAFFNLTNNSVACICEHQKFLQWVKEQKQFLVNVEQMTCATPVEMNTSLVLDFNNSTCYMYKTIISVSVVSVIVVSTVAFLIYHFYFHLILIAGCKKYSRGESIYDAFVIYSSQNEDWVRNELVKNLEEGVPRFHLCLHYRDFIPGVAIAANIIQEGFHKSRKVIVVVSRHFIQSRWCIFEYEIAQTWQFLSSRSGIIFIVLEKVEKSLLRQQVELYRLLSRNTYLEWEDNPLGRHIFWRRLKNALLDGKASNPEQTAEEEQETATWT
T1 sequence (Q9JHF9 19-160): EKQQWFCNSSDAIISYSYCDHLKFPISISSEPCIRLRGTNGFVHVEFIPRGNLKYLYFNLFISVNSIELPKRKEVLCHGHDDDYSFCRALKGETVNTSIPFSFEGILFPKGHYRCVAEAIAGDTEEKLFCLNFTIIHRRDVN
Description: (§1) The above assays were utilized to compare the derivatives of the lead pyrimidoindole for their ability to activate mouse and human TLR4. […] Each cytokine induction curve was first converted to a percent activity curve, and then the AUC of the percent activity curve was calculated. The process of converting to a percent activity curve allowed subtracting background and adjusting for plate-to-plate variation.
(§2) The culture supernatants were harvested after a 20-24 h incubation period. SEAP activity in the supernatants was determined by a colorimetric assay, using either the SEAPorter Assay Kit (Imgenex), with absorbance read at 405 nm, or QuantiBlue (Invivogen), with absorbance read at 630 nm.

human TLR4 = target: T2, human TLR4 (Homo sapiens, UniProt O00206+Q9Y6Y9); experiment: Human TLR4 HEK Blue NFκB/SEAP reporter assay; settings: for human TLR4, values normalized to Cmpd 1: hTLR4 HEK293 transfectoma, all compounds tested at 10 μM, Cmpd 1 set at 100
T2 construct: host or cells: HEK293 (HEK Blue) cells with NFκB/SEAP reporter
T2 sequence (O00206 24-839): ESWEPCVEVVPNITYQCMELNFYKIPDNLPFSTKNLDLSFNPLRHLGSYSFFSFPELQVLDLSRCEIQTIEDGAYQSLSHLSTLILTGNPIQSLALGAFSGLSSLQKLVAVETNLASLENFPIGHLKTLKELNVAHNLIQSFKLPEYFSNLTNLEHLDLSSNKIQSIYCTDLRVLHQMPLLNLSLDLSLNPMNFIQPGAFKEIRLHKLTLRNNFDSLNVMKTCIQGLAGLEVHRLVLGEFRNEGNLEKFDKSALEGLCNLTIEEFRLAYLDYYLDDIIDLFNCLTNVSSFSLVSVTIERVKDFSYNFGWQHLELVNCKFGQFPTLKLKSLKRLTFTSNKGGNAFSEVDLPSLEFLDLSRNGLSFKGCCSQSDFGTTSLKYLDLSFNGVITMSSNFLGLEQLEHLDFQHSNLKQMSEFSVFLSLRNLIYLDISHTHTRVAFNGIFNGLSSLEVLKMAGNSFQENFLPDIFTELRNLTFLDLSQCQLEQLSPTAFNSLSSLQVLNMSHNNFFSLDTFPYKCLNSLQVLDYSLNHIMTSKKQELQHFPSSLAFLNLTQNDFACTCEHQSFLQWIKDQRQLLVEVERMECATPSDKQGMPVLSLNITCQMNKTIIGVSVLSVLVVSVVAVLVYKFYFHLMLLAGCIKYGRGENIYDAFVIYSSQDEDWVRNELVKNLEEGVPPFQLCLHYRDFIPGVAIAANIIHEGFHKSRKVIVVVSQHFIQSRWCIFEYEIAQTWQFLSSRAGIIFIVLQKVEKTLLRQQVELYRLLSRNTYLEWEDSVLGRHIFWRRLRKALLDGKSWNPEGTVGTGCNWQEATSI
T2 sequence (Q9Y6Y9 19-160): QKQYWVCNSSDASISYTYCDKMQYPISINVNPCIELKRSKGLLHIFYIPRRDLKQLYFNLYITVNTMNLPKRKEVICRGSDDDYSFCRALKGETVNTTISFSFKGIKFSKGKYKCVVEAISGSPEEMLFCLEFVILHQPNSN
Description: as §1, §2

[1] = test system: mouse bone marrow derived dendritic cells (mBMDC); experiment: IL-6 induction in mouse bone marrow derived dendritic cells (ELISA); settings: relative to Cmpd 1 / within series
Description: as §1
(§3) BMDC were prepared from C57BL/6 mice as described. See e.g., Wu, C. […] BMDC (10^5 cells per well) were plated in 96-well plates in 200 μL of complete RPMI1640 supplemented with 10% fetal calf serum (FCS; Sigma Aldrich), 100 U/mL penicillin, and 100 μg/mL streptomycin (Invitrogen). […] After 18 h incubation, the cell culture supernatants were collected. LPS (purified LPS, Invivogen, San Diego, Calif.) or MPLA (1 μg/mL synthetic MPLA, Invivogen, San Diego, Calif.) were used as positive controls. […] The AUC was calculated from BMDC dose-response curves using Prism 5 (GraphPad, San Diego). Each cytokine induction curve was first converted to a percent activity curve, and then the AUC of the percent activity curve was calculated. The process of converting to a percent activity curve allowed subtracting background and adjusting for plate-to-plate variation.

[2] = test system: mouse bone marrow derived dendritic cells (mBMDC); experiment: IP-10 induction in mBMDC (ELISA), surrogate marker of type I IFN; settings: relative to Cmpd 1
Description: In addition to the production of inflammatory cytokines (IL-6, IL-12, TNFα, etc.) mediated by NFκB activation, TLR4 signaling can result in the production of type I interferons, a feature that is not only important for activation of dendritic cells leading to good adjuvant activity, but would also be important for rapid defense against a variety of pathogens, particularly viruses. […] To determine the relative ability of all compounds to induce the production of type 1 IFN, each was evaluated in mouse bone marrow derived dendritic cells as shown in Tables 1-3.
as §3
In addition, the levels of IP-10, a surrogate marker of type I IFN, in the supernatants were determined by ELISA (R&D Systems, Minneapolis, Minn.).

Compound | mouse TLR4, area under curve (AUC) values normalized to Cmpd 1 (mouse TLR4) | human TLR4, values normalized to Cmpd 1 (human TLR4) | IL-6 activity in mBMDC (in words) [1] | IP-10 production in mBMDC (in words) [2] | mouse TLR4 reporter cell activation (in words) (mouse TLR4) | human TLR4 reporter cell activation (in words) (human TLR4)
CCCCNC(=O)CSc1nc2c([nH]c3ccccc32)c(=O)n1-c1ccccc1 [Compound 23, N-butyl-2-((4-oxo-3-phenyl-4,5-dihydro-3H-pyrimido[5,4-b]indol-2-yl)thio)acetamide] | 31 | 32 | somewhat less active | – | – | –
O=C(CSc1nc2c([nH]c3ccccc32)c(=O)n1CCc1ccccc1)NC1CCCCC1 [Compound 40, N-cyclohexyl-2-((4-oxo-3-phenethyl-4,5-dihydro-3H-pyrimido[5,4-b]indol-2-yl)thio)acetamide] | 1 | 1 | total loss of activity | – | – | –
O=C(CSc1nc2c([nH]c3ccccc32)c(=O)n1-c1ccc2ccccc2c1)NC1CCCCC1 [Compound 39, N-cyclohexyl-2-((3-(naphthalen-2-yl)-4-oxo-4,5-dihydro-3H-pyrimido[5,4-b]indol-2-yl)thio)acetamide] | 6 | 3 | total loss of activity | – | – | –
CC(C)(C)CCNC(=O)CSc1nc2c([nH]c3ccccc32)c(=O)n1-c1ccccc1 [Compound 28, N-(3,3-dimethylbutyl)-2-((4-oxo-3-phenyl-4,5-dihydro-3H-pyrimido[5,4-b]indol-2-yl)thio)acetamide] | 126 | 72 | among the most active of the alkyls; also recorded: high IL-6 | high IP-10 production | – | –
CC(C)CCNC(=O)CSc1nc2c([nH]c3ccccc32)c(=O)n1-c1ccccc1 [Compound 27, N-isopentyl-2-((4-oxo-3-phenyl-4,5-dihydro-3H-pyrimido[5,4-b]indol-2-yl)thio)acetamide] | 56 | 38 | somewhat less active | – | – | –
CCCC(C)NC(=O)CSc1nc2c([nH]c3ccccc32)c(=O)n1-c1ccccc1 (stereo not drawn) [Compound 30, 2-((4-oxo-3-phenyl-4,5-dihydro-3H-pyrimido[5,4-b]indol-2-yl)thio)-N-(pentan-2-yl)acetamide] | 17 | 13 | diminished IL-6 release | nearly equivalent induction of IP-10 | – | –
CC(C)CNC(=O)CSc1nc2c([nH]c3ccccc32)c(=O)n1-c1ccccc1 [Compound 26, N-isobutyl-2-((4-oxo-3-phenyl-4,5-dihydro-3H-pyrimido[5,4-b]indol-2-yl)thio)acetamide] | 24 | 21 | somewhat less active | – | – | –
CCC(C)CCNC(=O)CSc1nc2c([nH]c3ccccc32)c(=O)n1-c1ccccc1 (stereo not drawn) [Compound 29, N-(3-methylpentyl)-2-((4-oxo-3-phenyl-4,5-dihydro-3H-pyrimido[5,4-b]indol-2-yl)thio)acetamide] | 29 | 17 | diminished IL-6 release | nearly equivalent induction of IP-10 | – | –
O=C(CSc1nc2c([nH]c3ccccc32)c(=O)n1-c1ccccc1)NC1CCC1 [Compound 12, N-cyclobutyl-2-((4-oxo-3-phenyl-4,5-dihydro-3H-pyrimido[5,4-b]indol-2-yl)thio)acetamide] | 18 | 32 | diminished IL-6 release | nearly equivalent induction of IP-10 | – | –
O=C(CSc1nc2c([nH]c3ccccc32)c(=O)n1C1CCCCC1)NC1CCCCC1 [Compound 36, N-cyclohexyl-2-((3-cyclohexyl-4-oxo-4,5-dihydro-3H-pyrimido[5,4-b]indol-2-yl)thio)acetamide] | 56 | 40 | some loss of activity | – | – | –
O=C(CSc1nc2c([nH]c3ccccc32)c(=O)n1C1CCCCC1)NC1CCCC1 [Compound 41, 2-((3-Cyclohexyl-4-oxo-4,5-dihydro-3H-pyrimido[5,4-b]indol-2-yl)thio)-N-cyclopentylacetamide] | 19 | 33 | partial loss of activity | – | – | –
CN(C(=O)CSc1nc2c3ccccc3n(C)c2c(=O)n1-c1ccccc1)C1CCCCC1 [Compound 43, N-cyclohexyl-N-methyl-2-((5-methyl-4-oxo-3-phenyl-4,5-dihydro-3H-pyrimido[5,4-b]indol-2-yl)thio)acetamide] | 1 | <1 | total loss of IL-6 activity | – | – | –
O=C(CSc1nc2c([nH]c3ccccc32)c(=O)n1-c1ccccc1)NC1CCNCC1 [Compound 34, 2-((4-oxo-3-phenyl-4,5-dihydro-3H-pyrimido[5,4-b]indol-2-yl)thio)-N-(piperidin-4-yl)acetamide] | <1 | <1 | – | – | – | –
O=C(CSc1nc2c([nH]c3ccccc32)c(=O)n1-c1ccccc1)Nc1ccc2cn[nH]c2c1 [Compound 20, N-(1H-indazol-6-yl)-2-((4-oxo-3-phenyl-4,5-dihydro-3H-pyrimido[5,4-b]indol-2-yl)thio)acetamide] | <1 | <1 | – | – | – | –
NC(=O)Cn1c2ccccc2c2nc(SCC(=O)NC3CCCCC3)n(-c3ccccc3)c(=O)c21 [Compound 52, 2-((5-(2-amino-2-oxoethyl)-4-oxo-3-phenyl-4,5-dihydro-3H-pyrimido[5,4-b]indol-2-yl)thio)-N-cyclohexylacetamide] | 8 | 11 | – | – | – | –
COC(=O)CCCn1c2ccccc2c2nc(SCC(=O)NC3CCCCC3)n(-c3ccccc3)c(=O)c21 [Compound 44, Methyl 4-(2-((2-(cyclohexylamino)-2-oxoethyl)thio)-4-oxo-3-phenyl-3H-pyrimido[5,4-b]indol-5(4H)-yl)butanoate] | 9 | 19 | very little IL-6 | – | good activity | good activity
